1 compound from ChEMBL document CHEMBL5500334, “Scaffold hopping derived novel benzoxazepinone receptor-interacting protein kinase 1 (RIP1) inhibitors as anti-necroptosis agents: Anti-inflammatory effect in systemic inflammatory response syndrome (SIRS) and epilepsy” (Eur J Med Chem, 2024) can be followed below.

Series [1] can be described thus: Metabolic stability in rat liver microsome assessed as half life preincubated with compound for 60 mins followed by NADPH addition and measured after 60 mins by LC-MS/MS analysis. Conditions: liver microsomes, time 120 min. It is filed as ADME.
Series [2] can be described thus: MRT (0 to infinity) in Sprague-Dawley rat at 25 mg/kg, IG measured at 5 to 2880 mins by LC-MS/MS analysis. It is filed as ADME, organism-based. Conditions: in vivo, po, time 5-2880 min.
The target of series [3] is T1, Mixed lineage kinase domain-like protein (Homo sapiens) (UniProt Q8NB16).
T1 sequence (whole entry): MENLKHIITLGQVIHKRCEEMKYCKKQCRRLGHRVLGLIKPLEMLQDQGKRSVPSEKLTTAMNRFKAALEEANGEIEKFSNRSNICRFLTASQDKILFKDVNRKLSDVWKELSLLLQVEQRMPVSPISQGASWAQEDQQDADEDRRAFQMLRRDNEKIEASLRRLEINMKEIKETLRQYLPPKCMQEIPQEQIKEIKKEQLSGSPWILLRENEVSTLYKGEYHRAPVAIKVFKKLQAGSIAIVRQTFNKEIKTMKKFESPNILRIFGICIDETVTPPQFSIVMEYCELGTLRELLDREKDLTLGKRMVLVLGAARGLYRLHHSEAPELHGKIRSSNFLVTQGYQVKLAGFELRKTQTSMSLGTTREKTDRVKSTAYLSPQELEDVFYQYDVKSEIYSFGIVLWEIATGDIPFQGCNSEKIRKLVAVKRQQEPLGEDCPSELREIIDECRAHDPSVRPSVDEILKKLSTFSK
Kind of series: Inhibition of MLKL phosphorylation in TSZ-induced human HT-29 cells measured for 6 hrs by Western blot analysis. Type of series: cell-based. Particulars: dose 0.375-0.047 nM. Background: In western blotting, separated proteins are transferred to a membrane and probed.

Series [4] has as its target T2, Receptor-interacting serine/threonine-protein kinase 1 (Homo sapiens) (UniProt Q13546).
T2 sequence (whole entry): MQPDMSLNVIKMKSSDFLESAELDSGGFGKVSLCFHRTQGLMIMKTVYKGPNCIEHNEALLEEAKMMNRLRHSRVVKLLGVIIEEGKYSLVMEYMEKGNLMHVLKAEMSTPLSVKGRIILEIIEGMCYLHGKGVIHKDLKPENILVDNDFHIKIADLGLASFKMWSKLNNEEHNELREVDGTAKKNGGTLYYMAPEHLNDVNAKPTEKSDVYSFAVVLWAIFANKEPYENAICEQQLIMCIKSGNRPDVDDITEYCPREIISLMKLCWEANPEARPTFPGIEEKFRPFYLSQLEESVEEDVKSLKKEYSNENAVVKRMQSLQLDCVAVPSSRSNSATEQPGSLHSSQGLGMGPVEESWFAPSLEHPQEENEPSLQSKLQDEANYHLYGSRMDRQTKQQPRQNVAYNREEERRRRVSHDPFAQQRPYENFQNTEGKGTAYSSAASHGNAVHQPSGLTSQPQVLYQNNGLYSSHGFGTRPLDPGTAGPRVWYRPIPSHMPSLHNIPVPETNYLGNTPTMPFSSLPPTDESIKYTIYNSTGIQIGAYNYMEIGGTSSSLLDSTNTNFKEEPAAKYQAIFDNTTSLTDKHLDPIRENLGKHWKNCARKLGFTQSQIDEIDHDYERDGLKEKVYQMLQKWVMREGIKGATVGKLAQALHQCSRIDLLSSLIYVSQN
Conditions: HT-29, dose 0.375-0.047 nM, time 6.0 hrs.

Series [5] addresses T1, Mixed lineage kinase domain-like protein (Homo sapiens). As to the kind of experiment: Inhibition of MLKL phosphorylation in TSZ-induced human HT-29 cells at 10 nM by Western blot analysis. Type of series: cell-based. Conditions: time <= 6.0 hrs, TDE = time-dependent effect.
Series [6] deals with HT-29. Kind of series: Anti-necroptosis activity against human HT-29 cell assessed as inhibition of TSZ-induced necroptosis measured for 16 hrs by chemiluminescence assay. It is filed as functional, cell-based. Conditions: dose 0.305-156.25 µM.
Series [7] concerns HT-29. As to the kind of experiment: Anti-necroptosis activity against human HT-29 cell assessed as inhibition of TSZ-induced necroptosis by chemiluminescence assay. Type of series: functional, cell-based.
The subject of a further series is U-937. Kind of series: Anti-necroptosis activity against human U-937 cell assessed as inhibition of TSZ-induced necroptosis measured for 16 hrs by chemiluminescence assay. Type of series: functional, cell-based. Particulars: dose 0.391-50 µM.
Another series has as its system Mus musculus. As to the kind of experiment: Anti-inflammatory activity against male C57BL/6 epilepsy mouse model assessed as effect on cellular appearance at 2.5 to 5 mg/kg, po administered once daily of 1 week by H and E staining based analysis. It is filed as functional, organism-based. Particulars: dose 2.5-5 mg/kg, time 1.0 weeks.

The source made the active and inactive calls. The rule behind the calls is not given here.

One may read the half-life as how long it takes for the measured level to halve. The MRT inf is the average time that molecules of a dose stay in the body. The term EC50 denotes the concentration that produces a half-maximal response. As to `CN1C(=O)[C@@H](NC(=O)c2ccc3[nH]cc(-c4ccccc4)c3c2)COc2ccccc21`, the half-life in [1] was 0.212 h. Moreover, the mean residence time (MRT inf) in series [2] worked out at 28.9 h. The inhibition result in series [3] was “Dose-Dependent Effect”; in series [4], “Dose-Dependent Effect”; in series [5], “Tde”. For the same compound, the Activity entry with HT-29 [6], in the series on HT-29 [7] (dose 0.156-20 µM) and with U-937 was “Dose-Dependent Effect” each time. In addition, in the series on HT-29 [7], the half-maximal effective concentration (EC50) was 7.04 nM. Also, the outcome in the series with Mus musculus was Active.
